Consider one compound from patent US11958829B1, “3-(4,5-diphenyl-2-(pyridin-3-YL)-1H-imidazol-1-YL)-N,N-dimethylpopan-1-amine as an antimicrobial compound” (KING FAISAL UNIVERSITY, priority 2023, dated 2024).

Data set [1] concerns Ps. Aeroqonaza. The data set is described as follows: Anti-microbial screening, agar dilution. The format is cell-based, Ps. aeruginosa. As to conditions: after 10, 20, 40 and 60 minutes at all dilutions, 1:100, 1:200, 1:400, and 1:800. The protocol: (§1) The antibacterial properties of the present compound were studied by the method of agar dilution. Test solutions of the compound were prepared in a concentration of 1% using dimethylformamide as a solvent then they are diluted in physiological solution to obtain the final experimental dilutions 1:100, 1:200, 1:400, and 1:800. The effect of these substances were compared with furacillin in a controllable study. The testing microbes used were gram positive bacteria St. Aereus, gram negative bacteria E. Coli, Ps. aeruginosa and Candida albicans fungi were taken. The experiments used for this survey were meat-pentonlu agar (EPA) for cultivation of bacteria and Saburo environment for fungi. Each experiment used 1 ml of test solution on each plate 500 min. Add 2 drops of emulsified with microbes feel. All experimental samples were taken from the agar after 10, 20, 40, and 60 minutes in the environment on the basis of Patrk planted. Bacteria were cultivated at a temperature of 37° C. for 1 day and the mushroom was kept in a thermostat for […] at a temperature of 28° C. Then results were checked.

Data set [2] has as its system St. Aereus. In words: Anti-microbial screening, agar dilution. Particulars: after 10, 20, 40 and 60 minutes at all dilutions, 1:100, 1:200, 1:400, and 1:800. The format is cell-based. On the procedure:
as §1
For orientation: Agar dilution tests growth on a series of plates holding different concentrations.

In data set [3] the test system is E. Coli. The data set is described as follows: Anti-microbial screening, agar dilution. The format is cell-based. Particulars: after 10, 20, 40 and 60 minutes at all dilutions, 1:100, 1:200, 1:400, and 1:800. On the procedure:
as §1

The subject of data set [4] is Candida albicans. The data set is described as follows: Anti-microbial screening, agar dilution. As to conditions: after 10, 20, 40 and 60 minutes at all dilutions, 1:100, 1:200, 1:400, and 1:800. Type of data set: cell-based. On the procedure: as §1

The term melting point denotes the temperature of the solid-liquid transition. The compound `CN(C)CCCn1c(-c2cccnc2)nc(-c2ccccc2)c1-c1ccccc1` [3-(4,5-Diphenyl-2-(pyridin-3-yl)-1H-imidazol-1-yl)-N,N-dimethylpropan-1-amine] returned a melting point of 145 to 147 °C. The “inhibition activity, Ps. aeruginosa” value in data set [1] is reported as “highest inhibition activity”. The “inhibition activity, St. Aereus” value in data set [2] was “highest inhibition activity”. Also, in data set [3], the “inhibition activity, E. Coli” value is “highest inhibition activity”. The “inhibition activity, Candida albicans” value in data set [4] was “highest inhibition activity”.
